Test: Single oral dose pharmacokinetic study in dogs, varying the testosterone dose (Example 1)
Format: in vivo, dogs (female beagles)
Settings: for Average Serum Testosterone / concentration at 0.5 h / concentration at 1 h / concentration at 2 h / concentration at 4 h / concentration at 5 h / concentration at 6 h / concentration at 8 h / concentration at 24 h: single oral; for Average Serum Testosterone: time 0 h (pre-dose); for Sustained release time, Lipid Suspension Time: time serum levels fell between about 300 and 1100 ng/dl; for concentration at 0.5 h / concentration at 1 h / concentration at 2 h / concentration at 4 h / concentration at 5 h / concentration at 6 h / concentration at 8 h / concentration at 24 h: female, beagle, dog, serum
Protocol: A study using six dogs (female beagles) was made to obtain preliminary pharmacokinetic data following a single oral dose of the delivery system. The dogs were 13-24 months old, and weighed in the range of 10.4 to 13.2 kg.
The dosing was done in four sequential one day intervals with a minimum two day rest period in between each interval. Blood was drawn immediately before the dose was administered. […] The animals were given the placebo or test article, as described above, at approximately the same time each day, immediately prior to being fed. The dog ate its food within 30 minutes of the dose being administered.
Blood samples were collected pre-dose and at 0.5, 1, 2, 4, 5, 6, 8 and 24 hours post dosing. At each time point, a minimum of 3 mL whole blood (or minimum volume determined by assay requirement) were collected by venipuncture of the jugular vein into non-heparinized Vacutainer tubes. The blood was centrifuged to obtain serum, which was kept on ice until placed into an appropriately sized vial, and frozen at −70° C. The samples remained frozen until delivered on dry ice to the lab for analysis. The lab used radioimmunoassay to analyse for testosterone.
Determining the sustained release properties of the samples in Example 1 by evaluating the amount of time the blood serum levels fell between about 300 and 1100 ng/dl, the sustained release times for Example 1 are given in Table 3. It is desirable to have release properties that are fairly constant with time. It is undesirable to have sharp peaks or drops in serum concentration of the drug.

C[C@]12CC[C@H]3[C@@H](CCC4=CC(=O)CC[C@@]43C)[C@@H]1CC[C@@H]2O [Testosterone, testosterone]
Average Serum Testosterone (dose 25 mg): 0 ng/dL
Sustained release time, Lipid Suspension Time (dose 25 mg): 1 h
Average Serum Testosterone (dose 50 mg): 1 ng/dL
Sustained release time, Lipid Suspension Time (dose 50 mg): 0 h
Average Serum Testosterone (dose 100 mg): 0 ng/dL
Sustained release time, Lipid Suspension Time (dose 100 mg): 7 h
Average Serum Testosterone (dose 250 mg): 26 ng/dL
Sustained release time, Lipid Suspension Time (dose 250 mg): 7 h
concentration at 0.5 h (dose 25 mg): 2.86 ng/mL
concentration at 1 h (dose 25 mg): 3.9 ng/mL
concentration at 2 h (dose 25 mg): 4.25 ng/mL
concentration at 4 h (dose 25 mg): 1.18 ng/mL
concentration at 5 h (dose 25 mg): 0.35 ng/mL
concentration at 6 h (dose 25 mg): 0.53 ng/mL
concentration at 8 h (dose 25 mg): 0.23 ng/mL
concentration at 24 h (dose 25 mg): 0.01 ng/mL
concentration at 0.5 h (dose 50 mg): 1.54 ng/mL
concentration at 1 h (dose 50 mg): 2.86 ng/mL
concentration at 2 h (dose 50 mg): 3.76 ng/mL
concentration at 4 h (dose 50 mg): 2.88 ng/mL
concentration at 5 h (dose 50 mg): 2.15 ng/mL
concentration at 6 h (dose 50 mg): 1.07 ng/mL
concentration at 8 h (dose 50 mg): 0.54 ng/mL
concentration at 24 h (dose 50 mg): 0.07 ng/mL
concentration at 0.5 h (dose 100 mg): 2.7 ng/mL
concentration at 1 h (dose 100 mg): 3.09 ng/mL
concentration at 2 h (dose 100 mg): 4.5 ng/mL
concentration at 4 h (dose 100 mg): 5.22 ng/mL
concentration at 5 h (dose 100 mg): 6.18 ng/mL
concentration at 6 h (dose 100 mg): 3.57 ng/mL
concentration at 8 h (dose 100 mg): 4.22 ng/mL
concentration at 24 h (dose 100 mg): 0.02 ng/mL
concentration at 0.5 h (dose 250 mg): 2.64 ng/mL
concentration at 1 h (dose 250 mg): 5.55 ng/mL
concentration at 2 h (dose 250 mg): 8.35 ng/mL
concentration at 4 h (dose 250 mg): 10.3 ng/mL
concentration at 5 h (dose 250 mg): 8.29 ng/mL
concentration at 6 h (dose 250 mg): 9.8 ng/mL
concentration at 8 h (dose 250 mg): 7.57 ng/mL
concentration at 24 h (dose 250 mg): 0.08 ng/mL
